In patent US20070087364A1, “In vitro erythroid micronucleus assay for genotoxicity” (Massachusetts Institute of Technology, priority 2005, published 2007):
Entries after “also recorded” stand apart in the source; their conditions may differ.

Assays:
[1] = tested on: bone marrow PCEs (reticulocytes); conditions: mouse; cited from earlier work
[2] = tested on: Lin^− fraction of C57BL/6J (mouse) BM; assay: in vitro erythroid micronucleus assay, erythropoietic culture of wild-type Lin− bone marrow
bone marrow = conditions: dose concentrations up to 20 μM, in vitro dosing (Glassner 1999); cited from earlier work
[3] = bolus injection of 25 mg/kg, cited from earlier work
MGMT^−/− Lin^− BM = assay: in vitro erythroid micronucleus assay, MGMT−/− Lin− bone marrow; conditions: introduced 10 h, 23 h or 30 h after seeding, harvest 72 h

Structure (SMILES)	result in the in vivo MN assay [1]	MN frequency in the PCE population (MN-PCE frequency) ([2]; 20 μM introduced 7 hours after seeding, harvest after 72 hours, vs vehicle control)	cell killing and MN formation ([2]; MGMT+/+ BM cultures treated 4 h after culture initiation (data not shown))	cell survival as measured by colony assay (bone marrow) [%]	peak plasma concentration ([3]; after 1 minute (Meulemans 1989)) [mM]	plasma level ([3]; within the next 15 minutes (Meulemans 1989))	MN frequency, MGMT−/− vs wild-type cultures (MGMT^−/− Lin^− BM; 10 μM and 20 μM doses)	cell survival (growth inhibition), MGMT−/− vs wild-type cultures (MGMT^−/− Lin^− BM)
COS(C)(=O)=O [MMS, methylmethane sulfonate]	test positive	–	–	–	–	–	–	–
O=NN(CCCl)C(=O)NCCCl [BCNU, 1,3-bis (2-chloroethyl) -1-nitrosourea]	–	provides a clear signal of genotoxicity; also recorded: significantly different than those exposed to vehicle control alone; also recorded: an increase in the frequency of MN-PCEs	cell-killing dominated and very little MN formation was observed	~100	~0.4	approximately 40 μM	significant increases in MN frequency; also recorded: more sensitive to growth-inhibition and MN-formation	decreased cell survival
